According to the supplement of paper PMC11061612:

Tests used:
Test in all cases: Bliss excess, mean over the matrix (fraction); higher = more synergy
[1] = system: NCI-H2141 (Small Cell Lung Carcinoma)
Outline: (§1)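 Cell lines in DMEM/F12 or RPMI with 10% FBS were plated in 1536-well plates, held 24 hours at 37°C, 5% CO2, then given two-drug dose matrices for 72 hours (DMSO typically 0.2%). Viability was read by CellTiter-Glo 2.0 luminescence and scaled as inhibition from 0 (vehicle wells) to 1 (blank wells). Combination Emax is the second-highest inhibition in the matrix; Bliss excess is observed combination effect minus expected EA + EB − EA·EB, EA and EB being single-agent effects.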

[2] = system: CCK-81 (Colorectal Carcinoma)
Outline: as §1

[3] = system: NCI-H2066 (Squamous Cell Lung Carcinoma)
Outline: as §1

Hs-445 (Non-Cancerous) = system: Hs-445 (Non-Cancerous)
Outline: as §1

[4] = system: SK-MG-1 (Low Grade Glioma)
Outline: as §1

[5] = system: NCI-H1693 (Lung Adenocarcinoma)
Outline: as §1

[6] = system: SISO (Cervical Carcinoma)
Outline: as §1

[7] = system: JSC-1 (B-Cell Non-Hodgkin's Lymphoma)
Outline: as §1

[8] = system: A3-KAW (B-Cell Non-Hodgkin's Lymphoma)
Outline: as §1

[9] = system: SK-MES-1 (Squamous Cell Lung Carcinoma)
Outline: as §1

[10] = system: KARPAS-422 (B-Cell Non-Hodgkin's Lymphoma)
Outline: as §1

[11] = system: ECC10 (Gastric Carcinoma)
Outline: as §1

[12] = system: NCI-H1650 (Lung Adenocarcinoma)
Outline: as §1

[13] = system: CAPAN-2 (Pancreatic Carcinoma)
Outline: as §1

U-2-OS (Osteosarcoma) = system: U-2-OS (Osteosarcoma)
Outline: as §1

[14] = system: COLO-824 (Breast Carcinoma)
Outline: as §1

[15] = system: NCI-H1666 (Lung Adenocarcinoma)
Outline: as §1

[16] = system: A549 (Lung Adenocarcinoma)
Outline: as §1

[17] = system: BICR22 (Oral Cavity Carcinoma)
Outline: as §1

LN-405 (Glioblastoma) = system: LN-405 (Glioblastoma)
Outline: as §1

SMILES | Bliss excess [1] | Bliss excess [2] | Bliss excess [3] | Bliss excess (Hs-445 (Non-Cancerous)) | Bliss excess [4] | Bliss excess [5] | Bliss excess [6] | Bliss excess [7] | Bliss excess [8] | Bliss excess [9] | Bliss excess [10] | Bliss excess [11] | Bliss excess [12] | Bliss excess [13] | Bliss excess (U-2-OS (Osteosarcoma)) | Bliss excess [14] | Bliss excess [15] | Bliss excess [16] | Bliss excess [17] | Bliss excess (LN-405 (Glioblastoma))
Cc1c2c(nn1C)CSCc1cc(n(C)n1)CSc1cc(c3ccccc3c1)OCCCc1c(C(=O)O)n(C)c3c-2c(Cl)ccc13 [AZD5991] + C1CN(CCC1(C(=O)N[C@@H](CCO)C2=CC=C(C=C2)Cl)N)C3=NC=NC4=C3C=CN4 [Capivasertib] (first compound max 1 µM, 7x7, partner max 3 µM) | 0.0003 | 0.0555 | -0.0197 | -0.0545 | 0.0354 | -0.0294 | -0.0021 | -0.0085 | 0.0236 | 0.0568 | -0.132 | 0.0934 | 0.012 | 0.0085 | 0.0114 | 0.01 | 0.0151 | -0.0312 | 0.119 | 0.0158
Cc1c2c(nn1C)CSCc1cc(n(C)n1)CSc1cc(c3ccccc3c1)OCCCc1c(C(=O)O)n(C)c3c-2c(Cl)ccc13 [AZD5991] + C=CCn1c(=O)c2cnc(Nc3ccc(N4CCN(C)CC4)cc3)nc2n1-c1cccc(C(C)(C)O)n1 [AZD1775] (first compound max 1 µM, partner max 1 µM) | -0.0145 | -0.0116 | -0.0231 | 0.0139 | 0.0333 | 0.0581 | -0.0417 | -0.0042 | 0.0126 | -0.0183 | -0.0192 | 0.0696 | 0.0047 | 0.0292 | 0.0183 | -0.0593 | 0.0037 | -0.0488 | -0.0107 | 0.0077
Cc1c2c(nn1C)CSCc1cc(n(C)n1)CSc1cc(c3ccccc3c1)OCCCc1c(C(=O)O)n(C)c3c-2c(Cl)ccc13 [AZD5991] + CC1(C)CCC(CN2CCN(c3ccc(C(=O)NS(=O)(=O)c4ccc(NCC5CCOCC5)c([N+](=O)[O-])c4)c(Oc4cnc5[nH]ccc5c4)c3)CC2)=C(c2ccc(Cl)cc2)C1 [Venetoclax] (first compound max 1 µM, 7x7, partner max 1 µM) | 0.107 | 0.0362 | -0.0303 | 0.0357 | -0.0221 | -0.025 | -0.0181 | 0.0155 | 0.0191 | -0.0302 | 0.205 | 0.277 | -0.0246 | -0.0292 | -0.0011 | 0.11 | -0.0478 | -0.0642 | 0.0003 | 0.0082
Cc1c2c(nn1C)CSCc1cc(n(C)n1)CSc1cc(c3ccccc3c1)OCCCc1c(C(=O)O)n(C)c3c-2c(Cl)ccc13 [AZD5991] + CCN(CCO)CCCOc1ccc2c(Nc3cc(CC(=O)Nc4cccc(F)c4)[nH]n3)ncnc2c1 [AZD2811] (first compound max 1 µM, 7x7, partner max 1 µM) | 0.0657 | 0.0227 | 0.0154 | 0.0869 | 0.0619 | 0.0102 | 0.108 | 0.123 | 0.0434 | 0.0098 | 0.0918 | 0.0058 | 0.0357 | -0.0133 | 0.0091 | -0.0156 | -0.0133 | -0.0592 | 0.0418 | 0.0122
Cc1c2c(nn1C)CSCc1cc(n(C)n1)CSc1cc(c3ccccc3c1)OCCCc1c(C(=O)O)n(C)c3c-2c(Cl)ccc13 [AZD5991] + CN(C)CCCOc1ccc(-c2ccc3ncc4c(c3c2)n(C2CCOCC2)c(=O)n4C)cn1 [AZD0156] (first compound max 1 µM, 7x7, partner max 1 µM) | -0.0146 | 0.0379 | -0.0084 | -0.106 | 0.0058 | -0.0254 | 0.0222 | -0.0081 | -0.0252 | -0.0029 | -0.0675 | -0.0158 | -0.0398 | 0.0062 | 0.0132 | -0.004 | 0.0068 | -0.026 | 0.016 | -0.0026
Cc1c2c(nn1C)CSCc1cc(n(C)n1)CSc1cc(c3ccccc3c1)OCCCc1c(C(=O)O)n(C)c3c-2c(Cl)ccc13 [AZD5991] + C[C@@H]1COCCN1C2=NC(=NC(=C2)C3(CC3)[S@](=N)(=O)C)C4=C5C=CNC5=NC=C4 [AZD6738] (first compound max 1 µM, 7x7, partner max 10 µM) | 0.0675 | 0.0173 | 0.0148 | -0.0064 | 0.0868 | 0.0316 | 0.0628 | 0.018 | 0.0161 | -0.0119 | -0.0209 | 0.0683 | 0.0392 | 0.0543 | 0.0276 | -0.009 | 0.0156 | 0.0007 | 0.0224 | 0.0493
